{
  "source": "paper PMC3850926",
  "about": "“Evaluation of the adverse event profile and pharmacodynamics of toceranib phosphate administered to dogs with solid tumors at doses below the maximum tolerated dose” (BMC Veterinary Research, 2013)",
  "origin": "cited, not measured here",
  "key": {"human cancer patients": {"tested_on": "human cancer patients", "details": "cited from earlier work"}, "VEGF": {"tested_on": "VEGF", "parameters": "method as in PMID 19212818", "details": "human patients; return to baseline during rest period; cited from earlier work"}},
  "data": [
    {"smiles": "CCN(CC)CCNC(=O)c1c(C)[nH]c(/C=C2\\C(=O)Nc3ccc(F)cc32)c1C", "note": "[sunitinib]", "values": [
      {"measurement": "incidence of PLN", "setting": "human cancer patients; human cancer patients", "result": "approximately 2.5%"},
      {"measurement": "hypertension classified as grade 3", "setting": "human cancer patients; human patients with RCC", "result": 8, "unit": "%"},
      {"measurement": "patients that developed hypertension", "setting": "human cancer patients; human patients with renal cell carcinoma (RCC)", "result": 24, "unit": "%"},
      {"measurement": "circulating endothelial precursors and plasma VEGF during treatment", "setting": "VEGF", "result": "increase over time during treatment"}
    ]}
  ]
}
